PubChem BioAssay (NCI)
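96-well plates; 48 h exposure; 5 concentrations. Endpoints by linear interpolation between flanking doses. Not reached: highest tested concentration assigned. Here, GI50 denotes the concentration required for 50% inhibition of growth. TGI: concentration producing complete growth inhibition.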

Legend:
Assay in all cases: DTP human tumour cell line panel, 48 h
[1] = system: 786-0 renal
[2] = system: A498 renal
[3] = system: A549 NSCLC
[4] = system: ACHN renal
[5] = system: BT-549 breast
[6] = system: CAKI-1 renal
[7] = system: CCRF-CEM leukemia
[8] = system: COLO 205 colon
[9] = system: DU-145 prostate
[10] = system: EKVX NSCLC
[11] = system: HCC-2998 colon
[12] = system: HCT-116 colon
[13] = system: HCT-15 colon
[14] = system: HL-60(TB) leukemia
[15] = system: HOP-62 NSCLC
[16] = system: HOP-92 NSCLC
[17] = system: HS 578T breast
[18] = system: HT29 colon
[19] = system: IGROV1 ovarian
[20] = system: K-562 leukemia
[21] = system: KM12 colon
[22] = system: LOX IMVI melanoma
[23] = system: M14 melanoma
[24] = system: MALME-3M melanoma
[25] = system: MCF7 breast
[26] = system: MDA-MB-231 breast
[27] = system: MDA-MB-435
[28] = system: MOLT-4 leukemia
[29] = system: NCI-H226 lung
[30] = system: NCI-H23 lung
[31] = system: NCI-H460 lung
[32] = system: NCI-H522 lung
[33] = system: NCI/ADR-RES ovarian
[34] = system: OVCAR-3 ovarian
[35] = system: OVCAR-4 ovarian
[36] = system: OVCAR-5 ovarian
[37] = system: OVCAR-8 ovarian
[38] = system: PC-3 prostate
[39] = system: RPMI-8226 leukemia
[40] = system: RXF 393 renal
[41] = system: SF-268 CNS
[42] = system: SF-295 CNS
[43] = system: SF-539 CNS
[44] = system: SK-MEL-2 melanoma
[45] = system: SK-MEL-28 melanoma
[46] = system: SK-MEL-5 melanoma
[47] = system: SK-OV-3 ovarian
[48] = system: SN12C renal
[49] = system: SNB-19 CNS
[50] = system: SNB-75 CNS
[51] = system: SR leukemia
[52] = system: SW-620 colon
[53] = system: T-47D breast
[54] = system: TK-10 renal
[55] = system: U251 CNS
[56] = system: UACC-257 melanoma
[57] = system: UACC-62 melanoma
[58] = system: UO-31 renal

Compound: COc1ccc(-c2nc3ncccn3c2/C=C/C(=O)c2cc(OC)c(OC)c(OC)c2)cc1
- GI50 [1]: 1.84 µM
- TGI [1]: 5.51 µM
- GI50 [2]: 2.13 µM
- TGI [2]: 6.28 µM
- GI50 [3]: 2.71 µM
- TGI [3]: > 100 µM
- GI50 [4]: 1.57 µM
- TGI [4]: 3.17 µM
- GI50 [5]: 1.45 µM
- TGI [5]: 5.92 µM
- GI50 [6]: 1.58 µM
- TGI [6]: 5.06 µM
- GI50 [7]: 4.01 µM
- TGI [7]: > 100 µM
- GI50 [8]: 1.7 µM
- TGI [8]: 3.07 µM
- GI50 [9]: 2.55 µM
- TGI [9]: 9.48 µM
- GI50 [10]: 1.61 µM
- TGI [10]: 6.06 µM
- GI50 [11]: 1.58 µM
- TGI [11]: 2.92 µM
- GI50 [12]: 1.17 µM
- TGI [12]: 2.39 µM
- GI50 [13]: 1.38 µM
- TGI [13]: 3.94 µM
- GI50 [14]: 2.52 µM
- TGI [14]: > 100 µM
- GI50 [15]: 2.83 µM
- TGI [15]: 10.3 µM
- GI50 [16]: 1.43 µM
- TGI [16]: 12 µM
- GI50 [17]: 1.91 µM
- TGI [17]: 14.7 µM
- GI50 [18]: 2.19 µM
- TGI [18]: 4.38 µM
- GI50 [19]: 2.2 µM
- TGI [19]: 6.29 µM
- GI50 [20]: 2.63 µM
- TGI [20]: > 100 µM
- GI50 [21]: 1.61 µM
- TGI [21]: 3.04 µM
- GI50 [22]: 1.46 µM
- TGI [22]: 3 µM
- GI50 [23]: 1.53 µM
- TGI [23]: 3.08 µM
- GI50 [24]: 1.81 µM
- TGI [24]: 17.1 µM
- GI50 [25]: 1.14 µM
- TGI [25]: 3.32 µM
- GI50 [26]: 2.73 µM
- TGI [26]: 17.2 µM
- GI50 [27]: 2.28 µM
- TGI [27]: 10.6 µM
- GI50 [28]: 3.1 µM
- TGI [28]: > 100 µM
- GI50 [29]: 2.28 µM
- TGI [29]: 6.92 µM
- GI50 [30]: 1.35 µM
- TGI [30]: 3.37 µM
- GI50 [31]: 1.43 µM
- TGI [31]: 2.74 µM
- GI50 [32]: 1.66 µM
- TGI [32]: 3.89 µM
- GI50 [33]: 1.56 µM
- TGI [33]: 4.86 µM
- GI50 [34]: 1.75 µM
- TGI [34]: 4.79 µM
- GI50 [35]: 2.91 µM
- TGI [35]: 14.3 µM
- GI50 [36]: 1.53 µM
- TGI [36]: 3.59 µM
- GI50 [37]: 2.72 µM
- TGI [37]: > 100 µM
- GI50 [38]: 4.32 µM
- TGI [38]: 53.2 µM
- GI50 [39]: 2.21 µM
- TGI [39]: > 100 µM
- GI50 [40]: 1.11 µM
- TGI [40]: 2.57 µM
- GI50 [41]: 2.36 µM
- TGI [41]: 9.62 µM
- GI50 [42]: 2.39 µM
- TGI [42]: 4.83 µM
- GI50 [43]: 1.36 µM
- TGI [43]: 2.95 µM
- GI50 [44]: 1.87 µM
- TGI [44]: 4.69 µM
- GI50 [45]: 1.65 µM
- TGI [45]: 3.27 µM
- GI50 [46]: 1.52 µM
- TGI [46]: 2.87 µM
- GI50 [47]: 2.5 µM
- TGI [47]: 7.01 µM
- GI50 [48]: 2.56 µM
- TGI [48]: 35.1 µM
- GI50 [49]: 3.01 µM
- TGI [49]: 10.3 µM
- GI50 [50]: 1.89 µM
- TGI [50]: 5.05 µM
- GI50 [51]: 1.53 µM
- TGI [51]: > 100 µM
- GI50 [52]: 1.75 µM
- TGI [52]: 3.94 µM
- GI50 [53]: 2.53 µM
- TGI [53]: 14.9 µM
- GI50 [54]: 2.88 µM
- TGI [54]: 10.4 µM
- GI50 [55]: 1.29 µM
- TGI [55]: 4.26 µM
- GI50 [56]: 1.88 µM
- TGI [56]: 4.81 µM
- GI50 [57]: 1.82 µM
- TGI [57]: 3.42 µM
- GI50 [58]: 0.514 µM
- TGI [58]: 4.17 µM

Compound: CNn1c(C)n[nH]c1=O
- TGI [1]: > 100 µM
- TGI [2]: > 100 µM
- TGI [3]: > 100 µM
- TGI [4]: > 100 µM
- TGI [5]: > 100 µM
- TGI [6]: > 100 µM
- TGI [7]: > 100 µM
- TGI [8]: > 100 µM
- TGI [9]: > 100 µM
- TGI [10]: > 100 µM
- TGI [11]: > 100 µM
- TGI [12]: > 100 µM
- TGI [13]: > 100 µM
- TGI [14]: > 100 µM
- TGI [15]: > 100 µM
- TGI [16]: > 100 µM
- TGI [17]: > 100 µM
- TGI [19]: > 100 µM
- TGI [20]: > 100 µM
- TGI [21]: > 100 µM
- TGI [22]: > 100 µM
- TGI [23]: > 100 µM
- TGI [24]: > 100 µM
- TGI [25]: > 100 µM
- TGI [26]: > 100 µM
- TGI [27]: > 100 µM
- TGI [28]: > 100 µM
- TGI [29]: > 100 µM
- TGI [30]: > 100 µM
- TGI [31]: > 100 µM
- TGI [32]: > 100 µM
- TGI [33]: > 100 µM
- TGI [34]: > 100 µM
- TGI [35]: > 100 µM
- TGI [36]: > 100 µM
- TGI [37]: > 100 µM
- TGI [38]: > 100 µM
- TGI [39]: > 100 µM
- TGI [41]: > 100 µM
- TGI [42]: > 100 µM
- TGI [43]: > 100 µM
- TGI [44]: > 100 µM
- TGI [45]: > 100 µM
- TGI [46]: > 100 µM
- TGI [47]: > 100 µM
- TGI [48]: > 100 µM
- TGI [49]: > 100 µM
- TGI [50]: 85.1 µM
- TGI [51]: > 100 µM
- TGI [52]: > 100 µM
- TGI [53]: > 100 µM
- TGI [54]: > 100 µM
- TGI [55]: > 100 µM
- TGI [56]: > 100 µM
- TGI [57]: > 100 µM
- TGI [58]: > 100 µM

Compound: O=c1oc2ccccc2nc1/C=C(\O)c1ccc([N+](=O)[O-])cc1
- TGI [1]: > 100 µM
- TGI [2]: > 100 µM
- TGI [3]: > 100 µM
- TGI [4]: > 100 µM
- TGI [5]: > 100 µM
- TGI [6]: > 100 µM
- TGI [7]: > 100 µM
- TGI [8]: > 100 µM
- TGI [9]: > 100 µM
- TGI [10]: > 100 µM
- TGI [11]: > 100 µM
- TGI [12]: > 100 µM
- TGI [13]: > 100 µM
- TGI [15]: > 100 µM
- TGI [17]: 95.1 µM
- TGI [18]: > 100 µM
- TGI [19]: > 100 µM
- TGI [20]: > 100 µM
- TGI [21]: > 100 µM
- TGI [23]: > 100 µM
- TGI [24]: > 100 µM
- TGI [25]: > 100 µM
- TGI [26]: > 100 µM
- TGI [27]: > 100 µM
- TGI [28]: > 100 µM
- TGI [29]: > 100 µM
- TGI [30]: > 100 µM
- TGI [31]: > 100 µM
- TGI [32]: > 100 µM
- TGI [33]: > 100 µM
- TGI [34]: > 100 µM
- TGI [35]: > 100 µM
- TGI [36]: > 100 µM
- TGI [37]: > 100 µM
- TGI [38]: > 100 µM
- TGI [40]: > 100 µM
- TGI [41]: > 100 µM
- TGI [42]: > 100 µM
- TGI [43]: > 100 µM
- TGI [44]: > 100 µM
- TGI [46]: > 100 µM
- TGI [47]: > 100 µM
- TGI [48]: > 100 µM
- TGI [49]: > 100 µM
- TGI [50]: > 100 µM
- TGI [51]: > 100 µM
- TGI [53]: > 100 µM
- TGI [54]: > 100 µM
- TGI [55]: > 100 µM
- TGI [56]: > 100 µM
- TGI [57]: > 100 µM
- TGI [58]: > 100 µM
